# Assay results: patent US8455523B2, “Compositions and methods for treating hyperlipidemias” (The Research Foundation of State University of New York, priority 2010, dated 2013)
# What was measured:
# mice fed western diet = test: MTPi with or without pioglitazone or lovastatin in mice fed western diet for five weeks (Example III); conditions: for cellular cholesteryl esters (liver) / hepatic free cholesterol / hepatic triglycerides: MTPi vs control
# Procedure: FIGS. 7a and 7b. Mice were fed western diet for five weeks. […] Livers were collected and used to measure MTP activity (A), triglyceride (B), total cholesterol (C), free cholesterol (D), esterified cholesterol (E) and free fatty acids (F).
# FIGS. 8a and 8b. Plasma was obtained from animals described in FIG. 7 and used to measure triglyceride (A) and cholesterol (B) in apoB-lipoproteins. In addition, HDL cholesterol (C), plasma free fatty acids (D), ALT (E), and AST (F) levels were measured.
# [1] = system: C57Bl/6J mice fed either a chow or western diet; test: MTP inhibitor BMS-212122-01 with or without lovastatin, pioglitazone or PBA in chow or western diet fed C57Bl/6J mice; format: in vivo; conditions: for hepatic triglycerides: MTPi 1 mg/kg/day one week, lovastatin 50 or pioglitazone 25 mg/kg/day added to MTPi; for hepatic free cholesterol: lovastatin or pioglitazone co-administered with MTPi; for Hepatic free fatty acids (FFA): lovastatin or pioglitazone with MTPi; for hepatic total and free cholesterol / hepatic triglycerides compared to western diet fed controls / plasma lipids: drug alone, one week; for plasma ALT/AST levels: lovastatin added to MTPi
# Procedure: FIG. 13. Age matched wildtype C57/Bl6J animals chow fed animals were treated with DMSO (control) or MTP inhibitor (MTPi) for one week. […] All drugs were administered by oral gavage. Animals were sacrificed on day 7 and plasma and livers were harvested and analyzed. * represent comparison to DMSO control; # represent comparisons to WD control; @ represent comparisons to WD MTP inhibitor treatment.
# FIG. 18. Age matched wildtype C57/BL6J were fed WD for one month and were administered MTPi, or 4-phenylbutyric acid (PBA) everyday for one week. All drugs were administered by oral gavage. Animals were sacrificed on day 7 and livers were harvested. * represent comparison DMSO control; # represent comparisons to HF MTP inhibitor treated animals.
# C57BL/6J Black 6 mice (stock number 000664) were obtained from Jackson Laboratory and used for chow fed and western diet fed experiments. MTP inhibitor (BMS […]) (1 mg/kg/day), Lovastatin, Pioglitazone (Toronto Research Chemicals P471000) (25 mg/kg/day) and 4-phenylbutyric acid (Calbiochem 820986) (1 g/kg/day) were administered by oral gavage. Chow fed animals were treated for one week with either DMSO or MTP inhibitor. Western diet fed animals were fed DMSO, MTP inhibitor, Pioglitazone, MTP inhibitor+Pioglitazone, Lovastatin, MTP inhibitor+Lovastatin, 4-phenylbutyric acid, and MTP inhibitor+4-phenylbutyric acid. Chow fed animals were also injected with either PBS or Tunicamycin and animals were sacrificed at 4, 8, 12 and 24 hours.
# All animals were kept in 07:00-19:00 h lighting schedule. […] Food was withdrawn 16 h before the sacrifice of the mice. On the day of the experiment, mice were anesthetized and blood was collected from the heart. Liver was collected, washed in ice-cold PBS, cut into small pieces and used for lipid extraction, histological staining, to measure different protein activities/quantities and for mRNA analysis. Lipids were extracted from the tissue homogenates following the Bligh and Dyer method. Triglyceride (Infinity TM Triglyceride, TR22421) and total cholesterol (Infinity TM Cholesterol, TR13421) levels in the tissues were determined using commercial kits (Thermo Scientific). Free cholesterol and free fatty acid levels were measured using kits from Wako Chemicals (Germany). Esterified cholesterol was calculated by subtracting the free cholesterol from the total cholesterol.
# We next studied the effects of chemical inhibition of MTP in C57Bl/6J mice fed either a chow or western diet (WD) for 5 weeks. Chow fed animals were orally gavaged with either DMSO or MTP inhibitor BMS-212122-01 (MTPi; 1 mg/kg/day) for one week. WD fed animals were treated with DMSO, MTP inhibitor with or without lovastatin (50 mg/kg/day) or pioglitazone (25 mg/kg/day) daily by oral gavage for one week.
# [2] = system: hyperlipidemic bonnet macaques; test: MTP inhibitor with or without pioglitazone or lovastatin in western diet fed bonnet macaques; format: in vivo, bonnet macaque monkeys; conditions: for plasma cholesterol: then MTP inhibitor one month ± Pioglitazone or Lovastatin; for Hepatic cholesterol, total and free: biopsies
# Procedure: FIG. 14. Bonnet Macaque monkeys fed ad libitum WD diet for 40 days and were administered MTPi, Lovastatin, (Lovas) or Pioglitazone (Pio) everyday for one month. A-D* represent comparisons to the MTPi alone group. E-I* represent comparisons between baseline and post biopsies.
# Eleven (11) Male bonnet macaque monkeys were fed western diet for 40 days and treated with MTP inhibitor (BMS 2122122-01) with or without either Pioglitazone or Lovastatin for one month. Plasma samples were obtained at Day 0, 20, 40, 47, 54, 61 and 68 days. Liver biopsies were obtained on Day 40 and Day 68. Biopsies were conducted over two days; 2 animals from each group were biopsied per day.
# In order to ascertain if the effects seen were a species-specific effect, we studied the treatment of MTP inhibitors either alone or in conjunction with Pioglitazone or Lovastatin in hyperlipidemic bonnet macaques. These animals were fed ad libitum with a WD for 40 days and then subsequently treated with MTP inhibitors for one month. […] These studies indicate that western diet increases plasma cholesterol and that these increases can be abrogated by treatment with an MTP inhibitor.
# [3] = system: C57Bl/6J mice fed western diet; test: MTP inhibitor CP-346086 with or without lovastatin or WY14643 in western diet fed mice: plasma/hepatic lipids, AST/ALT; format: in vivo; conditions: for hepatic cholesterol (total, free and esterified): co-drug given with MTPi, compared to MTPi group
# Procedure: FIGS. 4a and 4b. Effect of MTP inhibitor (CP-34086) on plasma lipids and lipoproteins in C57Bl/6J mice fed western diet ad libitum for 8 weeks. MTP inhibitor solubilzed in DMSO was administered orally for one week (15 mg/kg/day) along with either DMSO (MTPi), lovastatin (50 mg/kg/day), or WY14643 (10 mg/kg/day). Control mice were gavaged with DMSO only.
# FIGS. 5a and 5b. Liver samples from FIG. 4 were used to measure MTP activity (A) and hepatic lipids (B-E). Stars on MPTi group represent comparison between Control and MTPi groups.
# Control group (n=4) received daily oral gavage of DMSO alone. MTPi group received 15 mg/kg/day MTP inhibitor CP-346086 (MTPi) once daily. […] Plasma total and HDL cholesterol were unaffected by MTPi. Combined treatment of MTPi and lovastatin decreased plasma LDL cholesterol. […] Next, we measured changes in plasma hepatic enzymes (FIGS. 4G-H). […] These studies indicate that apart from lowering plasma triglyceride, MTPi enhances plasma AST/ALT and these increases can be avoided by the co-administration of lovastatin.
# [4] = WD five weeks, treatment in last week, co-drugs with MTPi
Structure (SMILES),cellular cholesteryl esters (liver) (mice fed western diet; [4]),hepatic free cholesterol (mice fed western diet; [4]),hepatic triglycerides (mice fed western diet; [4]),plasma HDL cholesterol (mice fed western diet; [4]),hepatic free cholesterol ([1]; MTPi one week),Hepatic free fatty acids (FFA) ([1]; MTPi one week),hepatic total and free cholesterol ([1]; WD fed),hepatic triglycerides compared to western diet fed controls ([1]; WD fed),plasma lipids ([1]; WD fed),plasma cholesterol ([2]; WD 40 days),"Hepatic cholesterol, total and free ([2]; co-drugs with MTP inhibitor)","hepatic cholesterol (total, free and esterified) [3]",further results
"CCc1ccc(CCOc2ccc(CC3SC(=O)NC3=O)cc2)nc1 (racemic) [pioglitazone, (RS)-5-(4-[2-(5-ethylpyridin-2-yl)ethoxy]benzyl)thiazolidine-2,4-dione]",increased,not seen,avoided increases,slightly increased,reduced,resistant,decreased,slightly lower,no effect,no further significant effect,suppressed,–,"AST/ALT levels (plasma) (mice fed western diet; mouse, in vivo): significantly lower; hepatic triglycerides [1]: abrogated; rise in intestinal free cholesterol seen with MTPi alone ([1]; WD fed, in conjunction with MTPi): attenuated; Plasma FFA levels ([1]; high fat feeding, MTPi one week, co-drugs with MTPi): completely abrogated; plasma AST/ALT levels vs baseline and day 40 ([2]; WD 40 days, then treatment one month): did not show elevated; Hepatic triglycerides (biopsies day 40 vs day 68) ([2]; co-drugs with MTP inhibitor): no significant difference"
Cc1cccc(Nc2cc(Cl)nc(SCC(=O)O)n2)c1C [WY14643],–,–,–,–,–,–,–,–,–,–,–,no significant effect,"plasma AST/ALT ([3]; WD 8 weeks, CP-346086 15 mg/kg/day 1 week ± lovastatin 50 or WY14643 10 mg/kg/day, MTPi vs control, co-drugs vs MTPi): no significant effect; plasma lipids ([3]; WD 8 weeks, WY14643 10 mg/kg/day given along with MTPi, 1 week): did not affect"
CC[C@H](C)C(=O)O[C@H]1C[C@@H](C)C=C2C=C[C@H](C)[C@H](CC[C@@H]3C[C@@H](O)CC(=O)O3)[C@H]21 [lovastatin],increased,not seen,not affected,slightly increased,reduced,resistant,decreased,no effect,no effect,no further significant effect,suppressed,significantly lower,"AST/ALT levels (plasma) (mice fed western diet; [4]): significantly lower; plasma free fatty acids (mice fed western diet; [4]): not affected; hepatic triglycerides ([1]; listed as Lovastatin): without affecting; plasma ALT/AST levels ([1]; MTPi one week): lowered; plasma ALT/AST levels ([1]; MTPi one week, listed as Lovastatin): abrogated increases; Cardiac tissue lipid profiles ([1]; WD fed, MTPi ± pioglitazone or lovastatin): no changes; intestinal lipids ([1]; WD fed, with MTPi): no effect"
